In ChEMBL document CHEMBL6109134, “Discovery of AMG 193, an MTA-Cooperative PRMT5 Inhibitor for the Treatment of MTAP-Deleted Cancers” (J Med Chem, 2025):

Tests used:
[1] = target: T1, Nuclear receptor subfamily 1 group I member 2 (Homo sapiens, UniProt O75469); experiment: Activation of human PXR in human HepG2 cells co-transfected with CYP3A4-luciferase at 10 uM incubated for 1 day relative to control; settings: hepg2, 24 h
T1 sequence (O75469 whole entry): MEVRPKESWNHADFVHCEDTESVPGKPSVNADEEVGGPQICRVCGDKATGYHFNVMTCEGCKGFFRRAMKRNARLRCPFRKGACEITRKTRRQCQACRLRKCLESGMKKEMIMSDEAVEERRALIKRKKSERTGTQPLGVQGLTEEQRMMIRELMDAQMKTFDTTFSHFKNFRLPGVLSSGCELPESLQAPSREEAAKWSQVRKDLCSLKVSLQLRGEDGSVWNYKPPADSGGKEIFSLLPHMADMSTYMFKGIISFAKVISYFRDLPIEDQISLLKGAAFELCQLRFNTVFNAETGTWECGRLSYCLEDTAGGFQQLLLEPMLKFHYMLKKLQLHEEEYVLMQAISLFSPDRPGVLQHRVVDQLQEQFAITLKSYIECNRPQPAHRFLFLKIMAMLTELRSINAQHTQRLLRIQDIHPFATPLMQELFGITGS

[2] = in vivo; settings: CD-1, mouse, iv, 1 mg/kg
[3] = Clearance in CD-1 mouse at 1 mg/kg, iv; settings: in vivo
[4] = Metabolic stability in human liver microsomes assessed as intrinsic clearance at 0.5 uM incubated for 40 mins in presence of NADPH; type: ADME, Microsome; settings: read-out: CLH
[5] = system: HCT-116; experiment: Antiproliferative activity against human HCT-116 cells harboring wildtype MTAP assessed as effect on cell viability incubated for 6 days by Celltiter-Glo luminescent cell viability assay; type: functional, cell-based; settings: HCT-116, 144 h
[6] = Half-life in CD-1 mouse at 1 mg/kg, iv; type: ADME, organism-based; settings: in vivo
[7] = system: human MDR1 (P-gp); experiment: Efflux ratio of permeability across basolateral to apical side over apical to basolateral side in MDCK cells transfected with human MDR1 in absence of elacridar; settings: dog
[8] = target: CYP3A4 (Homo sapiens, UniProt P08684); experiment: in vitro; settings: human liver microsomes, probe midazolam
CYP3A4, sequence (P08684 whole entry): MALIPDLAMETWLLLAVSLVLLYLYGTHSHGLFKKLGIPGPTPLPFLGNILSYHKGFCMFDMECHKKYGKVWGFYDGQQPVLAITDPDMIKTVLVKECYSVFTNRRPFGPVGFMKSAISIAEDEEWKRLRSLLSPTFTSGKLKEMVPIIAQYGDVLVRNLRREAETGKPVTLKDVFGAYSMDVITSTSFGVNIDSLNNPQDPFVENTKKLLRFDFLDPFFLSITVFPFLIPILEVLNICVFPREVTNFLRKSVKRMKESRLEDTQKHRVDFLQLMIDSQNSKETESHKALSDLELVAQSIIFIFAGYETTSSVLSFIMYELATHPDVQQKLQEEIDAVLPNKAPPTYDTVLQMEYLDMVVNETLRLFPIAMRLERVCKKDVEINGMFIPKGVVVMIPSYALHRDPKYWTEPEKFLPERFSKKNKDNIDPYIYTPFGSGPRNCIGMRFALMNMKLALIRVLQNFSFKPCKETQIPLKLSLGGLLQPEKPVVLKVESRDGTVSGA

[9] = Unbound clearance in CD-1 mouse at 1 mg/kg, iv; type: ADME, organism-based; settings: in vivo
[10] = system: HCT-116; experiment: Antiproliferative activity against MTAP-deleted human HCT-116 cells assessed as effect on cell viability incubated for 6 days by Celltiter-Glo luminescent cell viability assay; type: functional, cell-based; settings: HCT-116, 144 h
[11] = target: PRMT5/MEP50 complex (Homo sapiens, UniProt O14744)
PRMT5/MEP50 complex, sequence (O14744 whole entry): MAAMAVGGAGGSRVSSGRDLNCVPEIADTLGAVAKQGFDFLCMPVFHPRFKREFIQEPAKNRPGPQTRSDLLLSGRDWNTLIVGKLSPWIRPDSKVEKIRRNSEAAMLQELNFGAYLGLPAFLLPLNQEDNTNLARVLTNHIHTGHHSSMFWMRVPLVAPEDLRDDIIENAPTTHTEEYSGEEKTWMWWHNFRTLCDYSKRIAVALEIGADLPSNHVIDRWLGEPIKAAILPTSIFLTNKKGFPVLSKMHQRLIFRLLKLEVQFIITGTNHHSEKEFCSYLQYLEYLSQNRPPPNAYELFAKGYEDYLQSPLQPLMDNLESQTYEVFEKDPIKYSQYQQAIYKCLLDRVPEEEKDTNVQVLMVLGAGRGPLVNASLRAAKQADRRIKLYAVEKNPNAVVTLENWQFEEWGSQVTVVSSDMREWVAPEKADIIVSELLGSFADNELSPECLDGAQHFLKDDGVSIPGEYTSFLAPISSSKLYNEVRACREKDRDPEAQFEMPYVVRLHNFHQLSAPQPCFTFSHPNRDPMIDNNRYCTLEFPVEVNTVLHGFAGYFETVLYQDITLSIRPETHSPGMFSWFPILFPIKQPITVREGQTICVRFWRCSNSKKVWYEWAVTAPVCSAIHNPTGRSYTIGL
PRMT5/MEP50 complex, sequence (Q9BQA1 whole entry, further chain): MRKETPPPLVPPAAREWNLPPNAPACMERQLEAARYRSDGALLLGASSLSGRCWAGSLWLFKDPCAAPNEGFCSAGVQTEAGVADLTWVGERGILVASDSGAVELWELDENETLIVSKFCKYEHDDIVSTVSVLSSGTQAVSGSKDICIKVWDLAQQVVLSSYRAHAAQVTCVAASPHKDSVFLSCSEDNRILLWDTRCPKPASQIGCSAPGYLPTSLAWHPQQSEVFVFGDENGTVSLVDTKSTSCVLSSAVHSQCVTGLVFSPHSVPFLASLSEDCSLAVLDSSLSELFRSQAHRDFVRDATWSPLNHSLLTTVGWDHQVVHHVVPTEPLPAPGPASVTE
Description: Inhibition of PRMT5/MEP50 (unknown origin) preincubated with compound for 24 hrs in presence of SAM and MTA followed by Histone H4 (1-21)-Lys(Biotin) peptide addition and measured after 2 hrs by MTase-Glo reagent based assay

[12] = Metabolic stability in mouse liver microsomes assessed as intrinsic clearance at 0.5 uM incubated for 40 mins in presence of NADPH; type: ADME, Microsome; settings: read-out: CLH
[13] = Protein binding in mouse plasma assessed as unbound fraction by ultracentrifugation
[14] = Oral bioavailability in CD-1 mouse at 5 mg/kg administered as 1% Tween 80, 2% HPMC, 97% water/methane sulfonic acid, pH 2.0 formulation; type: ADME, organism-based; settings: in vivo
[15] = Metabolic stability in mouse hepatocytes assessed as intrinsic clearance measured per 10^6 cells; type: ADME, cell-based, Hepatocyte; settings: read-out: CLH
[16] = Metabolic stability in dog liver microsomes assessed as intrinsic clearance; type: ADME, Canis lupus familiaris, Microsome; settings: read-out: CLH
[17] = Clearance in Sprague-Dawley rat at 0.5 mg/kg, iv; settings: in vivo
[18] = system: U-87 MG; experiment: Antiproliferative activity against human U-87 MG cells assessed as effect on cell viability; type: functional, cell-based, U-87MG ATCC
[19] = Half-life in Sprague-Dawley rat at 0.5 mg/kg, iv; type: ADME, organism-based; settings: in vivo
[20] = Protein binding in human plasma assessed as unbound fraction by ultracentrifugation
[21] = Half-life in Beagle dog at 0.5 mg/kg, iv; type: ADME, organism-based, Canis lupus familiaris; settings: in vivo
[22] = in vivo; settings: beagle, dog, iv, 0.5 mg/kg
[23] = Protein binding in dog plasma assessed as unbound fraction by ultracentrifugation
[24] = Drug metabolism in human hepatocytes assessed as 3-methylquinoline ring system oxidation mediated metabolite formation; type: ADME, cell-based, Hepatocyte
[25] = Unbound clearance in Beagle dog at 0.5 mg/kg, iv; type: ADME, organism-based, Canis lupus familiaris; settings: in vivo
[26] = Oral bioavailability in Beagle dog at 2 mg/kg administered as 1% Tween 80, 2% HPMC, 97% water/methanesulfonic acid, pH 2.0 formulation; type: ADME, organism-based, Canis lupus familiaris; settings: in vivo
[27] = Metabolic stability in dog hepatocytes assessed as intrinsic clearance measured per 10^6 cells; type: ADME, cell-based, Canis lupus familiaris, Hepatocyte; settings: read-out: CLH
[28] = Metabolic stability in rat liver microsomes assessed as intrinsic clearance; type: ADME, Microsome; settings: time 40 min, read-out: CLH
[29] = system: DOHH-2; experiment: Antiproliferative activity against human DOHH-2 cells assessed as effect on cell viability; type: functional, cell-based
[30] = AUC (0 to t) in CD-1 mouse at 5 mg/kg, po administered as 1% Tween 80, 2% HPMC, 97% water/methane sulfonic acid, pH 2.0 formulation; type: ADME, organism-based; settings: in vivo
[31] = Metabolic stability in human hepatocytes assessed as intrinsic clearance measured per 10^6 cells; type: ADME, cell-based, Hepatocyte; settings: read-out: CLH
[32] = Drug metabolism in mouse hepatocytes assessed as 3-methylquinoline ring system oxidation mediated metabolite formation; type: ADME, cell-based, Hepatocyte
[33] = Volume of distribution at steady state in Sprague-Dawley rat at 0.5 mg/kg, iv; settings: in vivo
[34] = system: BXPC-3; experiment: Antiproliferative activity against human BXPC-3 cells assessed as effect on cell viability; type: functional, cell-based
[35] = Clearance in Beagle dog at 0.5 mg/kg, iv; settings: in vivo
[36] = Metabolic stability in rat hepatocytes assessed as intrinsic clearance measured per 10^6 cells; type: ADME, cell-based, Hepatocyte; settings: read-out: CLH
[37] = Unbound clearance in Sprague-Dawley rat at 0.5 mg/kg, iv; type: ADME, organism-based; settings: in vivo

SMILES: Nc1nc2ccc(C(=O)N3CCOC[C@@H]3c3ccc(C(F)(F)F)cc3)cc2c2c1COC2
- Activity [1]: < 20%
- Vd [2]: 1.6 L/kg
- clearance [3]: 6.67 mL/min/kg
- microsomal CLint at 0.5 µM [4]: 50 µL/min/mg
- IC50 [5]: 4.81 µM
- half-life [6]: 2.7 h
- efflux ratio [7]: 13
- inhibition at 30 min, 10 µM [8]: < 20%
- CL free [9]: 130 mL/min/kg
- IC50 [10]: 0.233 µM
- Ki [11]: < 0.0001 µM
- microsomal CLint at 0.5 µM [12]: 78 µL/min/mg
- fraction unbound ([13]; mouse plasma): 0.05
- bioavailability [14]: 61%

SMILES: Cc1cc2cc(C(=O)N(Cc3ccc(C(F)(F)F)cn3)[C@H](C)c3ncccn3)ccc2nc1N
- microsomal CLint at 0.5 µM [4]: 19 µL/min/mg
- hepatocyte CLint [15]: 18 µL/min/1e6 cells
- microsomal CLint [16]: 25 µL/min/mg
- IC50 [5]: 0.854 µM
- clearance [17]: 26.7 mL/min/kg
- IC50 [18]: 0.065 µM
- half-life [19]: 2.1 h
- fraction unbound [20]: 0.1
- half-life [21]: 1.2 h
- Vd [22]: 1.9 L/kg
- fraction unbound [23]: 0.2
- CL free [9]: 317 mL/min/kg
- IC50 [10]: 0.04 µM
- Drug metabolism [24]: metabolite_detected
- CL free [25]: 123 mL/min/kg
- bioavailability [26]: 45%
- hepatocyte CLint [27]: 12 µL/min/1e6 cells
- microsomal CLint at 0.5 µM [28]: 25 µL/min/mg
- IC50 [29]: 0.017 µM
- AUC(0-t) [30]: 1.01 µM·h
- hepatocyte CLint [31]: 9 µL/min/1e6 cells
- Drug metabolism [32]: metabolite_detected
- Vd [33]: 1.3 L/kg
- IC50 [34]: 0.073 µM
- microsomal CLint at 0.5 µM [12]: 90 µL/min/mg
- clearance [35]: 25 mL/min/kg
- hepatocyte CLint [36]: 11 µL/min/1e6 cells
- fraction unbound ([13]; plasma): 0.12
- CL free [37]: 167 mL/min/kg

SMILES: CN(Cc1ccc(C(F)(F)F)cn1)C(=O)c1ccc2nc(N)c3c(c2c1)COC3
- Activity [1]: < 20%
- Vd [2]: 0.9 L/kg
- clearance [3]: 8.33 mL/min/kg
- microsomal CLint at 0.5 µM [4]: 14 µL/min/mg
- IC50 [5]: 8.79 µM
- half-life [6]: 2.2 h
- efflux ratio [7]: 23
- inhibition at 30 min, 10 µM [8]: < 20%
- CL free [9]: 40 mL/min/kg
- IC50 [10]: 0.426 µM
- Ki [11]: 0.0001 µM
- microsomal CLint at 0.5 µM [12]: 19 µL/min/mg
- fraction unbound ([13]; mouse plasma): 0.21
- bioavailability [14]: 64%

SMILES: Nc1nc2ccc(C(=O)N3CCOC[C@@H]3c3ccc(C(F)(F)F)cn3)cc2c2c1COC2
- Activity [1]: < 20%
- Vd [2]: 1.2 L/kg
- clearance [3]: 6.67 mL/min/kg
- microsomal CLint at 0.5 µM [4]: 14 µL/min/mg
- IC50 [5]: 9.43 µM
- half-life [6]: 2.1 h
- efflux ratio [7]: 33
- inhibition at 30 min, 10 µM [8]: < 20%
- CL free [9]: 36.7 mL/min/kg
- IC50 [10]: 0.395 µM
- Ki [11]: < 0.0001 µM
- microsomal CLint at 0.5 µM [12]: 16 µL/min/mg
- fraction unbound ([13]; mouse plasma): 0.18
- bioavailability [14]: 78%

SMILES: C[C@@H]1COC[C@H](c2ccc(C(F)(F)F)cc2)N1C(=O)c1cc2c3c(c(N)nc2cn1)COC3
- Activity [1]: < 20%
- Vd [2]: 3 L/kg
- clearance [3]: 18.3 mL/min/kg
- microsomal CLint at 0.5 µM [4]: 43 µL/min/mg
- IC50 [5]: 0.264 µM
- half-life [6]: 2.6 h
- efflux ratio [7]: 5
- inhibition at 30 min, 10 µM [8]: < 20%
- CL free [9]: 233 mL/min/kg
- IC50 [10]: 0.007 µM
- Ki [11]: < 0.0001 µM
- microsomal CLint at 0.5 µM [12]: 178 µL/min/mg
- fraction unbound ([13]; mouse plasma): 0.08
- bioavailability [14]: 51%

SMILES: Nc1nc2ccc(C(=O)N3CCOC[C@@H]3c3ccc(C(F)(F)F)nc3)cc2c2c1COC2
- Activity [1]: < 20%
- Vd [2]: 1 L/kg
- clearance [3]: 6.67 mL/min/kg
- microsomal CLint at 0.5 µM [4]: 14 µL/min/mg
- IC50 [5]: 8.53 µM
- half-life [6]: 2.5 h
- efflux ratio [7]: 36
- inhibition at 30 min, 10 µM [8]: < 20%
- CL free [9]: 25 mL/min/kg
- IC50 [10]: 0.533 µM
- Ki [11]: 0.0002 µM
- microsomal CLint at 0.5 µM [12]: 17 µL/min/mg
- fraction unbound ([13]; mouse plasma): 0.27
- bioavailability [14]: 46%

SMILES: C[C@H]1OCc2c1c(N)nc1cnc(C(=O)N3CCOC[C@@H]3c3ccc(C(F)(F)F)cc3)cc21
- Activity [1]: 80%
- Vd [2]: 1.8 L/kg
- clearance [3]: 13.3 mL/min/kg
- microsomal CLint at 0.5 µM [4]: 26 µL/min/mg
- IC50 [5]: 2.46 µM
- half-life [6]: 1.6 h
- efflux ratio [7]: 7
- inhibition at 30 min, 10 µM [8]: < 20%
- CL free [9]: 147 mL/min/kg
- IC50 [10]: 0.064 µM
- Ki [11]: < 0.0001 µM
- microsomal CLint at 0.5 µM [12]: 51 µL/min/mg
- fraction unbound ([13]; mouse plasma): 0.09
- bioavailability [14]: 82%

SMILES: C[C@H](c1ncccn1)N(Cc1ccc(C(F)(F)F)cn1)C(=O)c1ccc2nc(N)c3c(c2c1)COC3
- Activity [1]: 13%
- Vd [2]: 1.4 L/kg
- clearance [3]: 38.3 mL/min/kg
- microsomal CLint at 0.5 µM [4]: 129 µL/min/mg
- IC50 [5]: 0.078 µM
- half-life [6]: 0.9 h
- efflux ratio [7]: 63
- inhibition at 30 min, 10 µM [8]: 4%
- CL free [9]: 167 mL/min/kg
- IC50 [10]: 0.014 µM
- Ki [11]: < 0.0001 µM
- microsomal CLint at 0.5 µM [12]: 278 µL/min/mg
- fraction unbound ([13]; mouse plasma): 0.23
- bioavailability [14]: 8%
